Experimental data reported in patent US5866583A, “Substituted 2,4-diaminopyrimidines” (Hoffmann-La Roche Inc., priority 1996, dated 1999).

Columns and labels:
[1] = target: purified DHFR of the reference strain S. aureus ATCC 25923 (Staphylococcus aureus, UniProt P0A017); test: Inhibition of purified DHFR of reference strain S. aureus ATCC 25923; assay type: biochemical
Source text: (§1) The inhibition of this enzyme was taken as a measurement of the antibacterial activity.

[2] = target: purified DHFR of the multiresistant strain S. aureus 157/4696 (Staphylococcus aureus, UniProt P13955); test: Inhibition of purified DHFR of multiresistant strain S. aureus 157/4696; assay type: biochemical
Source text: as §1

[3] = target: T1, purified DHFR of the opportunistic pathogen P. carinii (Pneumocystis carinii, UniProt P16184); test: biochemical; details: IC50 determined by means of a graph
T1 sequence (P16184 1-206): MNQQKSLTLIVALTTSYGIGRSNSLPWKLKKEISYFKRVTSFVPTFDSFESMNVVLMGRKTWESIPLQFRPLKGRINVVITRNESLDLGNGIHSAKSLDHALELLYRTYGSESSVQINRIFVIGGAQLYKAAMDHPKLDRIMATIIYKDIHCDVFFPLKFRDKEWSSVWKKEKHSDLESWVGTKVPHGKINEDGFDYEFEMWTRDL
Source text: as §1

SMILES | IC50 [1] [nM] | IC50 [2] [nM] | IC50 [3] [nM]
COc1cc(Cc2cnc(N)nc2N)cc(/C=C/C(=O)N2CCc3ccccc3C2c2ccc(C#N)cc2)c1OC (racemic) [Example 23] | 0.5 | 0.9 | 10000
COc1cc(Cc2cnc(N)nc2N)cc(/C=C/C(=O)N2CCc3ccccc3C2c2ccc(C)cc2)c1OC (racemic) [Example 16, (E)-(RS)-3-[5-(2,4-Diamino-pyrimidin-5-ylmethyl)-2,3-dimethoxy-phenyl]-1-[1-(4-methyl-phenyl)-3,4-dihydro-1H-isoquinolin-2-yl]-propenone] | 0.2 | 4.8 | 330
COc1ccc2c(c1)C(c1ccccn1)N(C(=O)/C=C/c1cc(Cc3cnc(N)nc3N)cc(OC)c1OC)CC2 (racemic) [Example 8, (E)-(RS)-3-[5-(2,4-Diamino-pyrimidin-5-ylmethyl)-2,3-dimethoxy-phenyl]-1-(7-methoxy-1-pyridin-2-yl-3,4-dihydro-1H-isoquinolin-2-yl)-propenone] | 5 | 9 | 5000
COc1cc(Cc2cnc(N)nc2N)cc(/C=C/C(=O)N2CCc3ccccc3C2c2ccccn2)c1OC (racemic) [Example 3, (E)-(RS)-3-[5-(2,4-Diamino-pyrimidin-5-ylmethyl)-2,3-dimethoxy-phenyl]-1-(1-pyridin-2-yl-3,4-dihydro-1H-isoquinolin-2-yl)-propenone] | 9 | 9.5 | 17000
COc1cc(Cc2cnc(N)nc2N)cc(/C=C/C(=O)N2CCc3ccccc3C2c2ccc(C(N)=O)nc2)c1OC (racemic) [Example 39, (E)-(R,S)-5-[2-[3-[5-(2,4-Diamino-pyrimidin-5-ylmethyl)-2,3-dimethoxy-phenyl]-acryloyl]-1,2,3,4-tetrahydro-isoquinolin-1-yl]-pyridine-2-carboxamide] | 1.2 | 1.8 | 30000
COc1cc(Cc2cnc(N)nc2N)cc(/C=C/C(=O)N2CCc3ccccc3C2c2cccs2)c1OC (racemic) [Example 27, (E)-(RS)-3-[5-(2,4-Diamino-pyrimidin-5-ylmethyl)-2,3-dimethoxy-phenyl]-1-(1-thiophen-2-yl-3,4-dihydro-1H-isoquinolin-2-yl)-propenone] | 1.6 | 1.8 | 3800
COc1cc(Cc2cnc(N)nc2N)cc(/C=C/C(=O)N2CCc3ccccc3C2c2ccc(C)nc2)c1OC (racemic) [Example 32, (E)-(RS)-3-[5-(2,4-Diamino-pyrimidin-5-ylmethyl)-2,3-dimethoxy-phenyl]-1-[1-(6-methyl-pyridin-3-yl)-3,4-dihydro-1H-isoquinolin-2-yl]-propenone] | 1.8 | 1.3 | 10000
COc1cc(Cc2cnc(N)nc2N)cc(/C=C/C(=O)N2CCc3ccccc3C2c2ccc(O)cc2)c1OC (racemic) [Example 21, (E)-(RS)-3-[5-(2,4-Diamino-pyrimidin-5-ylmethyl)-2,3-dimethoxy-phenyl]-1-[1-(4-hydroxy-phenyl)-3,4-dihydro-1H-isoquinolin-2-yl]-propenone] | 5.5 | 13 | 380
COc1cc(Cc2cnc(N)nc2N)cc(/C=C/C(=O)N2CCc3ccccc3C2c2ccc(Cl)nc2)c1OC (racemic) [Example 36, (E)-(RS)-1-[1-(6-Chloro-pyridin-3-yl)-3,4-dihydro-1H-isoquinolin-2-yl]-3-[5-(2,4-diamino-pyrimidin-5-ylmethyl)-2,3-dimethoxy-phenyl]-propenone] | 0.8 | 3 | 6200
COc1cc(Cc2cnc(N)nc2N)cc(/C=C/C(=O)N2CCc3ccccc3C2c2ccc(Cl)cn2)c1OC (racemic) [Example 34, (E)-(RS)-1-[1-(5-Chloro-pyridin-2-yl)-3,4-dihydro-1H-isoquinolin-2-yl]-3-[5-(2,4-diamino-pyrimidin-5-ylmethyl)-2,3-dimethoxy-phenyl]-propenone] | 2.4 | 1.7 | 10000
COc1cc(Cc2cnc(N)nc2N)cc(/C=C/C(=O)N2CCc3ccccc3C2c2ccc(S(C)(=O)=O)cc2)c1OC (racemic) [Example 40, (E)-(R,S)-3-[5-(2,4-Diamino-pyrimidin-5-ylmethyl)-2,3-dimethoxy-phenyl]-1-[1-(4-methanesulphonyl-phenyl)-3,4-dihydro-1H-isoquinolin-2-yl]-propenone] | 0.7 | 1.2 | 550
COc1cc(Cc2cnc(N)nc2N)cc(/C=C/C(=O)N2CCc3ccccc3[C@@H]2c2ccccn2)c1OC [Example 1, (E)-(R)-3-[5-(2,4-diamino-pyrimidin-5-ylmethyl)-2,3-dimethoxy-phenyl]-1-(1-pyridin-2-yl-3,4-dihydro-1H-isoquinolin-2-yl)-propenone] | 5 | 8 | 8000
